The record followed here is paper PMC12235045, “Structural insights into allosteric inhibition of HRI kinase by heme binding via HDX-MS” (Biochemical Journal, 2025).

Read-outs that look alike come from different tables or passages of the source.

Experiment [1] concerns the target T1, Heme-regulated inhibitor (HRI) (Homo sapiens, UniProt Q9BQI3).
T1 construct: gene EIF2AK1; N-terminally His-tagged human HRI, dephosphorylated, from E. coli
In words: ADP-GLO kinase assay with eIF2α substrate; supported by nanoDSF (+[…] °C at […]) and Phos-tag gels. It counts as biochemical. A general note: ADP-Glo first removes unused ATP, then detects ADP through luciferase.

Experiment [2] addresses T1, Heme-regulated inhibitor (HRI). The description is as above. It counts as biochemical. The source holds these as a separate data set.

Broadly, the IC50 is the concentration that gives 50% inhibition. A lower IC50 goes with greater potency.

T1 sequence (Q9BQI3 whole entry): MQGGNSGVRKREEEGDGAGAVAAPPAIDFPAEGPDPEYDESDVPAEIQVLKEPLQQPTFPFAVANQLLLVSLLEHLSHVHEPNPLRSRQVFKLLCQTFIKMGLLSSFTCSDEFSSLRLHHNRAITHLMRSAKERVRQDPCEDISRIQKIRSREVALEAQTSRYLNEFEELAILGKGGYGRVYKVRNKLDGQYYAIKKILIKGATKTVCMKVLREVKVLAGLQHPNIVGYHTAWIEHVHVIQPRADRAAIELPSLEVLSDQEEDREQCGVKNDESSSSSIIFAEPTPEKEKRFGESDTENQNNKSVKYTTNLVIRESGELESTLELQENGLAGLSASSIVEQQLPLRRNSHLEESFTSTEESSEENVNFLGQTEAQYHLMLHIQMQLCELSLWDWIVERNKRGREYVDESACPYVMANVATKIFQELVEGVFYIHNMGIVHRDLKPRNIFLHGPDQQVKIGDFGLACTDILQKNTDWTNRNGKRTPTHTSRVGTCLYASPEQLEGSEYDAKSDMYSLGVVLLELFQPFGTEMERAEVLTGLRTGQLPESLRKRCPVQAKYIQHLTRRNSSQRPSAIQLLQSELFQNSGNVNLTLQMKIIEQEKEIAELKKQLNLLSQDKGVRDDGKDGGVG

As to `COc1ncc(Cl)cc1S(=O)(=O)Nc1ccc(F)c(C#Cc2cnc(N)nc2)c1F` [GCN2iB], the IC50 in experiment [1] came to 0.62 µM.

For the compound `COC(=O)N[C@@H](C)CNc1nccc(-c2cn(C(C)C)nc2-c2cc(Cl)cc(NS(C)(=O)=O)c2F)n1` [encorafenib], in experiment [2], half-maximal inhibition (IC50) required 1.07 µM.
